Data taken from patent US10273218B2, “BCL-3 inhibitors” (University College Cardiff Consultants Limited, priority 2014, dated 2019).

Legend:
[1] = tested on: human breast cancer MDA-MB-231 xenograft; test: in vivo metastasis mouse Model 1 (seeding and early colonization of circulating tumour cells); parameters: species or system mice; details: 3.5 mg/Kg intraperitoneal daily for 10 days, relative luminescence of thoracic region
Procedure: In all experiments, each compound was administered by intraperitoneally at 3.5 mg/kg.
(§1) One model (Model 1) studied the effect of the compound's ability to inhibit the seeding and early colonization of circulating tumour cells at distal sites, most commonly in the lungs and liver. Human tumour cell lines were injected into the bloodstream of recipient mice, followed by single daily intraperitoneal injections of the compound (3.5 mg/kg in 1% DMSO) for 10 consecutive days. Tumour burden was monitored longitudinally for up to 8 weeks in vivo by live luminescence imaging, and subsequently histology performed on affected organs at the end of the experiment.
as §1, with “Model 1 tested” for “One model (Model 1) studied”, “Bcl3i compounds” for “the compound's ability”, “Bcl3 inhibitor” for “the compound”
The X axis represents the number of days after xenograft and the Y axis is the relative luminescence of the thoracic region by Xenon IVIS scanning of mice following injection of d-luciferin for 10 minutes.
MDA-MB-231 human breast cancer cells were used in each of the three xenograft models of metastatic breast cancer.

[2] = tested on: human breast cancer cell line MDA-MB-436; test: transwell (Boyden chamber) cell migration assay after scratch; assay type: cell-based; details: 10 micromolar compound, 24 hours before and 24 hours in transwell chambers, versus DMSO, compound 12, MEKi
Procedure: The migration of cells in the presence of a compound of Formula (I) or Formula (Ia) is determined using a Scratch assay.
For the Scratch Assay, 1 micromolar solutions of the compounds are prepared. In six well plates, the complete growth media of the seeded cells (density […] in 20 mL) is removed and replaced by 3 mL of a fresh one containing compounds of Formula (I) or Formula (Ia). Media is used as a negative compound.
After a 24 h incubation period at 5% CO2 and 37° C., the media is removed and a scratch is performed in each well. 1 mL of fresh complete growth media is used to wash the well. After its removal, 3 mL of a solution containing a compound of Formula (I) or Formula (Ia) is added in each well in triplicate. Pictures of the wells are then taken. After 24 h, pictures of the wells are again taken. […]
The cell migration assay used was the transwell (Boyden chamber) assay of cell migration in human breast cancer cell line MDA-MB-436. After a scratch was performed in each well the cells were incubated with a 10 micromolar solution of compound for 24 hours prior to passage into transwell chambers where they were maintained in the presence of compound for a further 24 hours before assessment of migration (measured by total fluorescence on opposing surface of transwell membrane following staining). Reduced fluorescence directly correlates with number of cells migrated. […]

O=C(Nc1ccccc1C(=O)NCCN1CCOCC1)c1ccc2ccccc2c1 [Compound 31]
potency of effect in Model 1 relative to compound 28 [1]: more potent effects than compound 28
inhibition of metastasis / tumour burden in Model 1 ([1]; versus controls and compound 12): equivalent inhibition of metastasis in vivo to compound 12
reduction of cell migration (total fluorescence on opposing surface of transwell membrane) [2]: more effective at reducing cell migration than the known potent cell migration inhibitor MEKi
